Details: Liquid, Vibrating tube method

CC(C)C(C)C [2,3-dimethylbutane]
mass density [kg/m3]
Details	283.15 K	288.15 K	293.15 K	298.15 K	303.15 K	308.15 K	313.15 K	318.15 K	323.15 K	328.15 K
100 kPa	670.76	666.22	661.58	657	652.31	647.61	642.78	638.08	633.18	628.26
2000 kPa	672.72	668.35	663.76	659.21	654.73	650.13	645.28	640.8	636.04	631.14
5000 kPa	675.8	671.5	667.04	662.62	658.23	653.82	649.18	644.77	640.11	635.61
7000 kPa	677.77	673.5	669.15	664.81	660.39	656.12	651.62	647.3	642.73	638.3
10000 kPa	680.57	676.37	672.12	667.97	663.63	659.42	655.04	650.89	646.47	642.27
20000 kPa	689.26	685.39	681.36	677.49	673.54	669.63	665.61	661.8	657.61	653.85
30000 kPa	697.12	693.43	689.64	686.05	682.15	678.59	674.74	671.23	667.06	663.86
40000 kPa	704.27	700.77	697.12	693.73	690.01	686.72	683.04	679.58	676.08	672.8
50000 kPa	710.91	707.56	704.07	700.78	697.16	694.02	690.56	687.47	684.13	680.68
60000 kPa	717.08	713.85	710.4	707.39	703.95	700.83	697.4	694.5	691.19	688.05
65000 kPa	720.09	716.77	713.55	710.52	707.12	704.06	700.79	697.71	694.58	691.47

Reference: the NIST ThermoML archive (doi:10.1016/j.fluid.2012.11.013)
